# Columns and labels:
# [1] = molecular target: T1, ABHD6 (Mus musculus (Mouse), UniProt Q8R2Y0); test: In vitro competitive activity-based protein profiling (mouse brain membrane fraction or cell lysates), ABHD6 band; type: biochemical; conditions: mouse proteome; for inhibition at 1 µM: read-out: ABHD6 % Inh 1 μM (mouse); for IC50: competitive ABPP
# Summary of the method: (§1)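 Mouse proteome samples (brain membrane fraction or cell lysate, 1.0 mg/mL protein) were pretreated with varying inhibitor concentrations and subsequently probed with fluorophosphonate-rhodamine, each step lasting 30 min at 37° C. Labelled proteins were separated by SDS-PAGE, and band fluorescence was imaged and quantified.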
# [2] = molecular target: T2, FAAH (Mus musculus (Mouse), UniProt O08914); test: Mouse brain proteomes from inhibitor treated mice (oral gavage, sacrificed 4 h after administration, ABPP analysis), FAAH; type: in vivo, mouse (C57Bl/6J); conditions: 5 mg/kg oral gavage
# T2 sequence (O08914 whole entry): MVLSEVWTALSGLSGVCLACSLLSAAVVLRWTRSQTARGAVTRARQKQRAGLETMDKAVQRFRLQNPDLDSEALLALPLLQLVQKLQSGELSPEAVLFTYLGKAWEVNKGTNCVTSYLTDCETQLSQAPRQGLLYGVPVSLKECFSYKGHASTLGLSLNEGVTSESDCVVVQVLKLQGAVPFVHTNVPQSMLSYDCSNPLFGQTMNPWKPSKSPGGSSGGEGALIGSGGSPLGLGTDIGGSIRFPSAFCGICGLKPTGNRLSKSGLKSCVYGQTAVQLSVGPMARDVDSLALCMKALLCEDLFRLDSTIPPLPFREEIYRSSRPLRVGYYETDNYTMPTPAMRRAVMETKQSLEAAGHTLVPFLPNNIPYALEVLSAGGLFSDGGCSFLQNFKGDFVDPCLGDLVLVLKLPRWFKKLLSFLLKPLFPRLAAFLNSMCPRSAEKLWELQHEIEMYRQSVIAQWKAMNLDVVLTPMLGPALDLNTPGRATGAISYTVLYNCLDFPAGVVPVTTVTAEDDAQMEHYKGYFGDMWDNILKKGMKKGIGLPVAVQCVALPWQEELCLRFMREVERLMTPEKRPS
# Summary of the method: (§2)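 Wild-type C57Bl/6J mice; p.o. gavage, vehicle e.g. PEG400/EtOH/PBS 7/2/1; 5 mg/kg. Brain harvested 4 h post-dose, proteome profiled by ABPP. Read-out: % inhibition.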
# [3] = molecular target: T1, ABHD6; test: Mouse brain proteomes from inhibitor treated mice (oral gavage, sacrificed 4 h after administration, ABPP analysis), ABHD6; type: in vivo, mouse (C57Bl/6J); conditions: 5 mg/kg oral gavage
# Summary of the method: as §2
# [4] = molecular target: T3, MAGL (Mus musculus (Mouse), UniProt O35678); test: Mouse brain proteomes from inhibitor treated mice (oral gavage, sacrificed 4 h after administration, ABPP analysis); type: in vivo, mouse (C57Bl/6J); conditions: 5 mg/kg oral gavage
# T3 sequence (O35678 whole entry): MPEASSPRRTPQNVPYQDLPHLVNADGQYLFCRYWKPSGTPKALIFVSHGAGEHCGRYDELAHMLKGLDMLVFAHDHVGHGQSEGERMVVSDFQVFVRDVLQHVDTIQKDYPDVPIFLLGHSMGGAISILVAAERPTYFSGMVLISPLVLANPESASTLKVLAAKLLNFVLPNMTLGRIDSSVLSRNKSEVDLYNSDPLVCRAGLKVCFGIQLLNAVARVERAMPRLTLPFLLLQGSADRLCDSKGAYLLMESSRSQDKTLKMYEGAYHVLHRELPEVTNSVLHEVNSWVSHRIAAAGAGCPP
# Summary of the method: as §2
# [5] = molecular target: T2, FAAH; test: In vitro competitive activity-based protein profiling (mouse brain membrane fraction or cell lysates), FAAH band; type: biochemical; conditions: mouse proteome; for inhibition at 1 µM: read-out: FAAH % Inh 1 μM (mouse); for IC50: competitive ABPP
# Summary of the method: as §1
# [6] = molecular target: T3, MAGL; test: In vitro competitive activity-based protein profiling (mouse brain membrane fraction or cell lysates), MAGL band; type: biochemical; conditions: mouse proteome; for inhibition at 1 µM: read-out: MAGL % Inh 1 μM (mouse); for IC50: competitive ABPP
# Method: In Vitro Competitive Activity-Based Protein Profiling.
# Proteomes (mouse brain membrane fraction or cell lysates) (50 μL, 1.0 mg/mL total protein concentration) were preincubated with varying concentrations of inhibitors at 37° C. After 30 min, FP—Rh (1.0 μL, 50 μM in DMSO) was added and the mixture was incubated for another 30 min at 37° C. Reactions were quenched with SDS loading buffer (50 μL-4×) and run on SDS-PAGE.
# T1 sequence (Q8R2Y0 whole entry): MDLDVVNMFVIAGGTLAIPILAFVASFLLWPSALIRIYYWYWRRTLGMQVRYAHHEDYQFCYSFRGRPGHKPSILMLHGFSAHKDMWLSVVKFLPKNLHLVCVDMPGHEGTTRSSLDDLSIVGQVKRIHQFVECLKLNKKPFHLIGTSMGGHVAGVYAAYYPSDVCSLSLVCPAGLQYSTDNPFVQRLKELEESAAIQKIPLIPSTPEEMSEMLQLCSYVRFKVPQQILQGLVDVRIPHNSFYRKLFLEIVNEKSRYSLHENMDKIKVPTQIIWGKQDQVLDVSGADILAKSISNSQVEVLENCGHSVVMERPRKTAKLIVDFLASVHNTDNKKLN
SMILES,inhibition at 1 µM [1] [%],IC50 [1] [nM],FAAH % Inh 5 mg/kg (mouse) [2],ABHD6 % Inh 5 mg/kg (mouse) [3],MAGL % Inh 5 mg/kg (mouse) [4],inhibition at 1 µM [5] [%],IC50 [5] [nM],inhibition at 1 µM [6] [%],IC50 [6] [nM]
"O=C(OC(C(F)(F)F)C(F)(F)F)N1CCC2(CCN(Cc3ccc(Cl)cc3N3CC4COCC4C3)C2)CC1 (stereo not drawn) [Example 25, 1,1,1,3,3,3-Hexafluoropropan-2-yl 2-(4-chloro-2-(tetrahydro-1H-furo[3,4-c]pyrrol-5(3H)-yl)benzyl)-2,8-diazaspiro[4.5]decane-8-carboxylate]",≥ 75,100 to 1000,# (# is <25%),# (# is <25%),## (## is equal to or greater than 25% but less than 75%),< 25,> 1000,> 75,< 100
"O=C(OC(C(F)(F)F)C(F)(F)F)N1CCC2(CCCN2Cc2ccc3c(c2)COC3)CC1 [Example 151, 1,1,1,3,3,3-Hexafluoropropan-2-yl 1-((1,3-dihydroisobenzofuran-5-yl)methyl)-1,8-diazaspiro[4.5]decane-8-carboxylate]",< 25,> 1000,## (## is equal to or greater than 25% but less than 75%),## (## is equal to or greater than 25% but less than 75%),### (### is ≥75%),< 25,> 1000,> 75,< 100
"CC1(C)CC2(CCN(C(=O)OC(C(F)(F)F)C(F)(F)F)CC2)CN1Cc1ccc(Cl)cc1N1CCOCC1 [Example 50, 1,1,1,3,3,3-Hexafluoropropan-2-yl 2-(4-chloro-2-morpholinobenzyl)-3,3-dimethyl-2,8-diazaspiro[4.5]decane-8-carboxylate]",25 to 75,> 1000,# (# is <25%),# (# is <25%),## (## is equal to or greater than 25% but less than 75%),< 25,> 1000,> 75,< 100
"O=C(OC(C(F)(F)F)C(F)(F)F)N1CCC2(CCCN2Cc2ccc(Cl)cc2N2CC3COCC3C2)CC1 (stereo not drawn) [Example 108, 1,1,1,3,3,3-Hexafluoropropan-2-yl 1-(4-chloro-2-(tetrahydro-1H-furo[3,4-c]pyrrol-5(3H)-yl)benzyl)-1,8-diazaspiro[4.5]decane-8-carboxylate]",< 25,> 1000,# (# is <25%),# (# is <25%),### (### is ≥75%),< 25,> 1000,> 75,< 100
"O=C(OC(C(F)(F)F)C(F)(F)F)N1CCC2(CCN(Cc3ccc(C(F)(F)F)cc3N3CCCCC3)C2)CC1 [Example 23, 1,1,1,3,3,3-Hexafluoropropan-2-yl 2-(2-(piperidin-1-yl)-4-(trifluoromethyl)benzyl)-2,8-diazaspiro[4.5]decane-8-carboxylate]",< 25,> 1000,# (# is <25%),# (# is <25%),## (## is equal to or greater than 25% but less than 75%),< 25,> 1000,> 75,< 100
"O=C(OC(C(F)(F)F)C(F)(F)F)N1CCC2(CCCN2Cc2cc(OC3CCS(=O)(=O)CC3)cc(C(F)(F)F)c2)CC1 [Example 176, 1,1,1,3,3,3-Hexafluoropropan-2-yl 1-(3-((1,1-dioxidotetrahydro-2H-thiopyran-4-yl)oxy)-5-(trifluoromethyl)benzyl)-1,8-diazaspiro[4.5]decane-8-carboxylate]",< 25,> 1000,# (# is <25%),# (# is <25%),## (## is equal to or greater than 25% but less than 75%),< 25,> 1000,> 75,< 100
"Cc1ccc(CN2CCCC23CCN(C(=O)OC(C(F)(F)F)C(F)(F)F)CC3)cc1C(F)(F)F [Example 180, 1,1,1,3,3,3-Hexafluoropropan-2-yl 1-(4-methyl-3-(trifluoromethyl)benzyl)-1,8-diazaspiro[4.5]decane-8-carboxylate]",< 25,> 1000,## (## is equal to or greater than 25% but less than 75%),## (## is equal to or greater than 25% but less than 75%),### (### is ≥75%),< 25,> 1000,> 75,< 100
"O=C(OC(C(F)(F)F)C(F)(F)F)N1CCC2(CCN(Cc3cccc(Cl)c3N3CCC(F)CC3)C2)CC1 [Example 65, 1,1,1,3,3,3-Hexafluoropropan-2-yl 2-(3-chloro-2-(4-fluoropiperidin-1-yl)benzyl)-2,8-diazaspiro[4.5]decane-8-carboxylate]",25 to 75,> 1000,# (# is <25%),## (## is equal to or greater than 25% but less than 75%),## (## is equal to or greater than 25% but less than 75%),< 25,> 1000,> 75,< 100
"O=C(OC(C(F)(F)F)C(F)(F)F)N1CCC2(CCN(Cc3ccc(C(F)(F)F)c(N4CCCC4)c3)C2)CC1 [Example 157, 1,1,1,3,3,3-Hexafluoropropan-2-yl 2-(3-(pyrrolidin-1-yl)-4-(trifluoromethyl)benzyl)-2,8-diazaspiro[4.5]decane-8-carboxylate]",≥ 75,100 to 1000,# (# is <25%),## (## is equal to or greater than 25% but less than 75%),### (### is ≥75%),< 25,> 1000,> 75,< 100
"O=C(OC(C(F)(F)F)C(F)(F)F)N1CCC2(CCN(Cc3ccc(Cl)cc3N3CCOCC3)C2)CC1 [Example 21, 1,1,1,3,3,3-Hexafluoropropan-2-yl 2-(4-chloro-2-morpholinobenzyl)-2,8-diazaspiro[4.5]decane-8-carboxylate]",≥ 75,100 to 1000,# (# is <25%),## (## is equal to or greater than 25% but less than 75%),### (### is ≥75%),< 25,> 1000,> 75,< 100
"O=C(OC(C(F)(F)F)C(F)(F)F)N1CCC2(CCCN2Cc2ccc(Cl)cc2N2CCN(CCF)CC2)CC1 [Example 19, 1,1,1,3,3,3-Hexafluoropropan-2-yl 1-(4-chloro-2-(4-(2-fluoroethyl)piperazin-1-yl)benzyl)-1,8-diazaspiro[4.5]decane-8-carboxylate]",,> 1000,# (# is <25%),# (# is <25%),## (## is equal to or greater than 25% but less than 75%),,> 1000,,< 100

# Continued, values first:
inhibition at 1 µM [1] [%],IC50 [1] [nM],FAAH % Inh 5 mg/kg (mouse) [2],ABHD6 % Inh 5 mg/kg (mouse) [3],MAGL % Inh 5 mg/kg (mouse) [4],inhibition at 1 µM [5] [%],IC50 [5] [nM],inhibition at 1 µM [6] [%],IC50 [6] [nM],SMILES
< 25,> 1000,# (# is <25%),# (# is <25%),# (# is <25%),< 25,> 1000,> 75,< 100,"O=C(OC(C(F)(F)F)C(F)(F)F)N1CCC2(CCCN2Cc2cc(Oc3nc4ccccc4s3)cc(C(F)(F)F)c2)CC1 [Example 172, 1,1,1,3,3,3-Hexafluoropropan-2-yl 1-(3-(benzo[d]thiazol-2-yloxy)-5-(trifluoromethyl)benzyl)-1,8-diazaspiro[4.5]decane-8-carboxylate]"
,> 1000,# (# is <25%),# (# is <25%),### (### is ≥75%),,> 1000,,< 100,"O=C(OC(C(F)(F)F)C(F)(F)F)N1CCC2(CCCN2Cc2cc(N3CC4COCC4C3)cc(C(F)(F)F)c2)CC1 (stereo not drawn) [Example 46, 1,1,1,3,3,3-Hexafluoropropan-2-yl 1-(3-(tetrahydro-1H-furo[3,4-c]pyrrol-5(3H)-yl)-5-(trifluoromethyl)benzyl)-1,8-diazaspiro[4.5]decane-8-carboxylate]"
25 to 75,> 1000,# (# is <25%),# (# is <25%),### (### is ≥75%),< 25,> 1000,> 75,< 100,"O=C(OC(C(F)(F)F)C(F)(F)F)N1CCC2(CCCN2Cc2ccc(C(F)(F)F)c(Cl)c2)CC1 [Example 183, 1,1,1,3,3,3-Hexafluoropropan-2-yl 1-(3-chloro-4-(trifluoromethyl)benzyl)-1,8-diazaspiro[4.5]decane-8-carboxylate]"
